In patent publication US20200199102A1, “COMPOUNDS THAT PARTICIPATE IN COOPERATIVE BINDING AND USES THEREOF” (Revolution Medicines, Inc., priority 2017, published 2020):
Where a SMILES comes first, the peptide text is derived from it. [ ]: non-standard residue; d: D form. MeBmt = C/C=C/C[C@@H](C)[C@@H](O)[C@H](NC)C(=O)O; NMeY = CN[C@@H](Cc1ccc(O)cc1)C(=O)O; NMeT = CN[C@H](C(=O)O)[C@@H](C)O; NMeL = CN[C@@H](CC(C)C)C(=O)O; dNMeV = CN[C@@H](C(=O)O)C(C)C; NMeNva = CCC[C@H](NC)C(=O)O; NMeV = CN[C@H](C(=O)O)C(C)C; Abu = CC[C@H](N)C(=O)O; Sar = CNCC(=O)O

How the values were obtained:
[1] = target: T1, Cyclophilin A (Homo sapiens, UniProt P62937); test: AlphaLISA inhibition of binding of biotinylated Cyclosporin A to FLAG tagged Cyclophilin A; conditions: for % signal: AlphaLISA signal; for % signal / % inhibition of CsA binding to Cyclophilin A: test concentration not given; for IC50: read-out: IC50 value of CsA binding to Cyclophilin A
T1 construct: made in house
T1 sequence (P62937 whole entry, species assumed): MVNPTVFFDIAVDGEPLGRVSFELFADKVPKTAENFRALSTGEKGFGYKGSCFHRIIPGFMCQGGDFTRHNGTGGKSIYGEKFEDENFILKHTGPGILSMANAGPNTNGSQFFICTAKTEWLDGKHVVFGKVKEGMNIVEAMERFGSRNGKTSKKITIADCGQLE
Outline: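 Inhibition of biotin-CsA binding to FLAG-tagged Cyclophilin A read by AlphaLISA (ex 680, em 615 nm). Working stocks were 6 nM biotinylated CsA and 25 nM FLAG-CypA; beads and compound were combined first for 30 min, then protein added for 60 min, all at room temperature in the dark, with DMSO and cyclosporin A controls.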

[2] = tested on: HeLa-CyclophilinA cells; test: Biosensor cell permeability assay (cyclophilin destabilizing mutant), HeLa-CyclophilinA cells; assay type: cell-based; conditions: 72 hrs
Description: Cell permeability of compounds can be determined using the following protocol.
This protocol utilizes a modified FKBP or cyclophilin destabilizing mutant to determine the bioactivity of FKBP binding compounds or cyclophilin binding compounds in whole cell assay.
DMEM, DMEM without Phenol Red, 10% FBS, 1× Sodium Pyruvate, 1× Glutamax. Add 125 μl of media with compound per well.
Plate HeLa-FKBP12 cells (for FKBP binding compounds) or HeLa-CyclophilinA cells (for cyclophilin binding compounds) and seed overnight at 5 k/well (approximately ˜18 hrs.). Using a multi-channel pipet, take out the old media and add ˜125 ul of new media with compounds. Compounds are diluted using DMEM without Phenol Red, 10% FBS, 1× Sodium Pyruvate, 1× Glutamax. Add 125 μL of media with compound per well. Cells are treated with compounds at concentration: 30, 10, 3.33, 1.11, 0.37, 0.12, 0.04 and 0.013 uM. Time points are taken at 72 hrs and plate read using plate reader with excitation/emission: 575/620.
Cell binding/permeability is calculated in fold-change (Total RFU of treated samples/total RFU of DMSO treated samples or total RFU above background (Total RFU minus total RFU of DMSO treated samples).

| SMILES | % signal [1] [%] | IC50 [1] [µM] | % inhibition of CsA binding to Cyclophilin A [1] [%] | IC50 [2] [µM] |
| --- | --- | --- | --- | --- |
| C/C=C/C[C@@H](C)[C@@H](O)[C@H]1C(=O)N[C@@H](CC)C(=O)N(C)CC(=O)N(C)[C@@H]([C@@H](C)CC)C(=O)N[C@@H](C(C)C)C(=O)N(C)[C@@H](CC(C)C)C(=O)N[C@@H](C)C(=O)N[C@H](C)C(=O)N(C)[C@@H](CC(C)C)C(=O)N(C)[C@@H](CC(C)C)C(=O)N(C)[C@@H](C(C)C)C(=O)N1C [Compound C33] | −0.08 | < 2 | 100.08 | < 3 |
| C/C=C/C[C@@H](C)[C@@H](O)[C@H]1C(=O)N[C@@H](CC)C(=O)N(C)CC(=O)N(C)[C@@H](C)C(=O)N[C@@H](C(C)C)C(=O)N(C)[C@@H](CC(C)C)C(=O)N[C@@H](C)C(=O)N[C@H](C)C(=O)N(C)[C@@H](CC(C)C)C(=O)N(C)[C@@H](CC(C)C)C(=O)N(C)[C@@H](C(C)C)C(=O)N1C [Compound C34] | −0.01 | < 2 | 100.01 | < 3 |
| C/C=C/C[C@@H](C)[C@@H](O)[C@H]1C(=O)N[C@@H](CC)C(=O)N(C)CC(=O)N(C)[C@H](C)C(=O)N[C@@H](C(C)C)C(=O)N(C)[C@@H](CC(C)C)C(=O)N[C@@H](C)C(=O)N[C@H](C)C(=O)N(C)[C@@H](CC(C)C)C(=O)N(C)[C@@H](CC(C)C)C(=O)N(C)[C@@H](C(C)C)C(=O)N1C [Compound C35] | 0.89 | < 2 | 99.11 | > 3 |
| C/C=C/C[C@@H](C)[C@@H](O)[C@H]1C(=O)N[C@@H](CC)C(=O)N(C)CC(=O)N(C)CC(=O)N[C@@H](C(C)C)C(=O)N(C)[C@@H](CC(C)C)C(=O)N[C@@H](C)C(=O)N[C@H](C)C(=O)N(C)[C@@H](CC(C)C)C(=O)N(C)[C@@H](CC(C)C)C(=O)N(C)[C@@H](C(C)C)C(=O)N1C [Compound C37] | 1.56 | < 2 | 98.44 | > 3 |
| C/C=C/C[C@@H](C)[C@@H](O)[C@H]1C(=O)N[C@@H](CC)C(=O)N(C)CC(=O)N(C)[C@@H]([C@@H](C)O)C(=O)N[C@@H](C(C)C)C(=O)N(C)[C@@H](CC(C)C)C(=O)N[C@@H](C)C(=O)N[C@H](C)C(=O)N(C)[C@@H](CC(C)C)C(=O)N(C)[C@@H](CC(C)C)C(=O)N(C)[C@@H](C(C)C)C(=O)N1C [Compound C38] | 1.57 | < 2 | 98.43 | < 3 |
| C/C=C/C[C@@H](C)[C@@H](O)[C@H]1C(=O)N[C@@H](CC)C(=O)N(C)CC(=O)N(C)[C@@H](Cc2ccc(O)cc2)C(=O)N[C@@H](C(C)C)C(=O)N(C)[C@@H](CC(C)C)C(=O)N[C@@H](C)C(=O)N[C@H](C)C(=O)N(C)[C@@H](CC(C)C)C(=O)N(C)[C@@H](CC(C)C)C(=O)N(C)[C@@H](C(C)C)C(=O)N1C [Compound C39] | 3.78 | < 2 | 96.22 | < 3 |
| C/C=C/C[C@@H](C)[C@@H](O)[C@H]1C(=O)N[C@@H](CC)C(=O)N(C)CC(=O)N(C)[C@H](C(C)C)C(=O)N[C@@H](C(C)C)C(=O)N(C)[C@@H](CC(C)C)C(=O)N[C@@H](C)C(=O)N[C@H](C)C(=O)N(C)[C@@H](CC(C)C)C(=O)N(C)[C@@H](CC(C)C)C(=O)N(C)[C@@H](C(C)C)C(=O)N1C [Compound C42] | 1.26 | < 2 | 98.74 | > 3 |
| C/C=C/C[C@@H](C)[C@@H](O)[C@H]1C(=O)N[C@@H](CC)C(=O)N(C)CC(=O)N(C)[C@@H](CCCC)C(=O)N[C@@H](C(C)C)C(=O)N(C)[C@@H](CC(C)C)C(=O)N[C@@H](C)C(=O)N[C@H](C)C(=O)N(C)[C@@H](CC(C)C)C(=O)N(C)[C@@H](CC(C)C)C(=O)N(C)[C@@H](C(C)C)C(=O)N1C [Compound C43] | 0.29 | < 2 | 99.71 | < 3 |
| C/C=C/C[C@@H](C)[C@@H](O)[C@H]1C(=O)N[C@@H](CC)C(=O)N(C)CC(=O)N(C)[C@@H](CCC)C(=O)N[C@@H](C(C)C)C(=O)N(C)[C@@H](CC(C)C)C(=O)N[C@@H](C)C(=O)N[C@H](C)C(=O)N(C)[C@@H](CC(C)C)C(=O)N(C)[C@@H](CC(C)C)C(=O)N(C)[C@@H](C(C)C)C(=O)N1C [Compound C44] | −0.07 | < 2 | 100.07 | < 3 |
| C/C=C/C[C@@H](C)[C@@H](O)[C@H]1C(=O)N[C@@H](CC)C(=O)N(C)CC(=O)N(C)[C@@H](CC(C)C)C(=O)N[C@@H](C(C)C)C(=O)N(C)[C@@H](CC(C)C)C(=O)N[C@@H](CC)C(=O)N[C@H](C)C(=O)N(C)[C@@H](CC(C)C)C(=O)N(C)[C@@H](CC(C)C)C(=O)N(C)[C@@H](C(C)C)C(=O)N1C [Compound C98] | 4.70 | < 2 | 95.30 | – |
| C/C=C/C[C@@H](C)[C@@H](O)[C@H]1C(=O)N[C@@H](CC)C(=O)N(C)CC(=O)N(C)[C@@H]([C@@H](C)O)C(=O)N[C@@H](C(C)C)C(=O)N(C)[C@@H](CC(C)C)C(=O)N[C@@H](CC)C(=O)N[C@H](C)C(=O)N(C)[C@@H](CC(C)C)C(=O)N(C)[C@@H](CC(C)C)C(=O)N(C)[C@@H](C(C)C)C(=O)N1C [Compound C99] (cyclo([Abu][Sar][NMeT]V[NMeL][Abu][dA][NMeL][NMeL][NMeV][MeBmt])) | 2.59 | < 2 | 97.41 | – |
| C/C=C/C[C@@H](C)[C@@H](O)[C@H]1C(=O)N[C@@H](CC)C(=O)N(C)CC(=O)N(C)[C@@H](Cc2ccc(O)cc2)C(=O)N[C@@H](C(C)C)C(=O)N(C)[C@@H](CC(C)C)C(=O)N[C@@H](CC)C(=O)N[C@H](C)C(=O)N(C)[C@@H](CC(C)C)C(=O)N(C)[C@@H](CC(C)C)C(=O)N(C)[C@@H](C(C)C)C(=O)N1C [Compound C100] (cyclo([Abu][Sar][NMeY]V[NMeL][Abu][dA][NMeL][NMeL][NMeV][MeBmt])) | 4.28 | < 2 | – | – |
| C/C=C/C[C@@H](C)[C@@H](O)[C@H]1C(=O)N[C@@H](CC)C(=O)N(C)CC(=O)N(C)[C@@H](C(C)C)C(=O)N[C@@H](C(C)C)C(=O)N(C)[C@@H](CC(C)C)C(=O)N[C@@H](CC)C(=O)N[C@H](C)C(=O)N(C)[C@@H](CC(C)C)C(=O)N(C)[C@@H](CC(C)C)C(=O)N(C)[C@@H](C(C)C)C(=O)N1C [Compound C101] (cyclo([Abu][Sar][NMeV]V[NMeL][Abu][dA][NMeL][NMeL][NMeV][MeBmt])) | 0.15 | < 2 | 99.85 | – |
| C/C=C/C[C@@H](C)[C@@H](O)[C@H]1C(=O)N[C@@H](CC)C(=O)N(C)CC(=O)N(C)[C@@H](CCC)C(=O)N[C@@H](C(C)C)C(=O)N(C)[C@@H](CC(C)C)C(=O)N[C@@H](CC)C(=O)N[C@H](C)C(=O)N(C)[C@@H](CC(C)C)C(=O)N(C)[C@@H](CC(C)C)C(=O)N(C)[C@@H](C(C)C)C(=O)N1C [Compound C102] (cyclo([Abu][Sar][NMeNva]V[NMeL][Abu][dA][NMeL][NMeL][NMeV][MeBmt])) | 0.70 | < 2 | – | – |
| C/C=C/C[C@@H](C)[C@@H](O)[C@H]1C(=O)N[C@@H](CC)C(=O)N(C)CC(=O)N(C)[C@H](C(C)C)C(=O)N[C@@H](C(C)C)C(=O)N(C)[C@@H](CC(C)C)C(=O)N[C@@H](CC)C(=O)N[C@H](C)C(=O)N(C)[C@@H](CC(C)C)C(=O)N(C)[C@@H](CC(C)C)C(=O)N(C)[C@@H](C(C)C)C(=O)N1C [Compound C103] (cyclo([Abu][Sar][dNMeV]V[NMeL][Abu][dA][NMeL][NMeL][NMeV][MeBmt])) | 13.65 | < 2 | 86.35 | – |
| C/C=C/C[C@@H](C)[C@@H](O)[C@H]1C(=O)N[C@@H](CC)C(=O)N(C)CC(=O)N(C)[C@@H](CCCC)C(=O)N[C@@H](C(C)C)C(=O)N(C)[C@@H](CC(C)C)C(=O)N[C@@H](CC)C(=O)N[C@H](C)C(=O)N(C)[C@@H](CC(C)C)C(=O)N(C)[C@@H](CC(C)C)C(=O)N(C)[C@@H](C(C)C)C(=O)N1C [Compound C104] | 0.99 | < 2 | 99.01 | – |
